Format in all cases: binding
The target of one test is T1, mTS (Mus musculus, UniProt P07607).
T1 construct: gene Tyms; recombinant, non-phosphorylated fraction for crystals; dimer; catalytic Cys189; residues 21-307 modelled
In words: X-ray crystal structure, co-crystal soaked with meTHF, […] Å. To be noted: pH 6.7; folate derivative also bound; active site of both subunits, non-covalent.

The target in another test is T2, CeTS (Caenorhabditis elegans, UniProt Q9Y052).
T2 construct: recombinant, non-phosphorylated fraction; dimer; catalytic Cys197; residues 24-312 modelled
In words: X-ray crystal structure, soaked crystal, […] Å. To be noted: apoenzyme crystal soaked with 36 mM ligand ca. 80 min, pH 5.6; no folate; active site of both subunits, non-covalent.

In the next test the target is T3, TspTS (Trichinella spiralis, UniProt Q9NDD3).
T3 construct: gene ts; recombinant, non-phosphorylated fraction; dimer; catalytic Cys189; residues 18-307 modelled in part
In words: X-ray crystal structure, co-crystal, […] Å. To be noted: co-crystallized with meTHF, pH 7.1; covalent to Cys189 Sγ via pyrimidine C(6); bound form reduced at C(5); no folate seen.

T2 sequence (Q9Y052 entry or part of it): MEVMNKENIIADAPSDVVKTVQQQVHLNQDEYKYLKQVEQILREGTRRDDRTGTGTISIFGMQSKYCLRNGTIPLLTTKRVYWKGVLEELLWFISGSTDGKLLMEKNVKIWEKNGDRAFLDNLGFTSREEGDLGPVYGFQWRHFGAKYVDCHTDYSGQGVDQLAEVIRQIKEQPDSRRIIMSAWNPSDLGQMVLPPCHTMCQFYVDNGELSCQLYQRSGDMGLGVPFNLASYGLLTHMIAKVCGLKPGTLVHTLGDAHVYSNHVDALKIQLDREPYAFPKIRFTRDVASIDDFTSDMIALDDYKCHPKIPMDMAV
T3 sequence (Q9NDD3 entry or part of it): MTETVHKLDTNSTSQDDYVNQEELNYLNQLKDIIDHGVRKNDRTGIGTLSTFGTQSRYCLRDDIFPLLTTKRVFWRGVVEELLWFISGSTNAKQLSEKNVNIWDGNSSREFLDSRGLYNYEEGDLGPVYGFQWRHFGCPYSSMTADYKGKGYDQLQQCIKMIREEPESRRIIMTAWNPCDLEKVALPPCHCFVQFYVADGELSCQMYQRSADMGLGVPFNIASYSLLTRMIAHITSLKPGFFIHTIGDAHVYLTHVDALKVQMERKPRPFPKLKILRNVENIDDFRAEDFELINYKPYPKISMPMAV
T1 sequence (P07607 whole entry, the tested form may be a part): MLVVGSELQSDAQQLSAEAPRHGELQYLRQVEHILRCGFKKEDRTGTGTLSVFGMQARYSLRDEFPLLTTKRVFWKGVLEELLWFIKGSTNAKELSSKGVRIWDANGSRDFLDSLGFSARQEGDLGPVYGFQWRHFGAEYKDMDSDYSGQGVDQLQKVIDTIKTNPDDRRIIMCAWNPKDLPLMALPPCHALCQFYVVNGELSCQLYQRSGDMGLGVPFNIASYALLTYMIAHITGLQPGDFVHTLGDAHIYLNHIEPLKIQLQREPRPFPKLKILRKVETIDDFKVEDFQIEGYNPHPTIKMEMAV

With `O=c1nc(NO)ccn1[C@H]1C[C@H](O)[C@@H](COP(=O)(O)O)O1` [N^4-OH-dCMP, N^4-hydroxy-2′-deoxycytidine 5′-monophosphate], the “X-ray crystal structure, co-crystal soaked with meTHF, 2.13 Å” value at mTS is listed as “N^4-OH-dCMP molecules are modeled with full occupancy”. Besides, on CeTS, the “X-ray crystal structure, soaked crystal, 2.8 Å” value was “with N^4-OH-dCMP molecules in both active sites refined with full occupancy”. For the same compound, the “X-ray crystal structure, co-crystal, 1.18 Å” value on TspTS is reported as “a clear electron density was present, identified as the N^4-OH-dCMP molecule”.

(Values after publication PMC8125507, “Molecular Mechanism of Thymidylate Synthase Inhibition by N^4-Hydroxy-dCMP in View of Spectrophotometric and Crystallographic Studies” (International Journal of Molecular Sciences, 2021).)
